Measurements as given in PMC5537869, “Role of Zucchini and Its Distinctive Components in the Modulation of Degenerative Processes: Genotoxicity, Anti-Genotoxicity, Cytotoxicity and Apoptotic Effects” (Nutrients, 2017).
Several values for one entry are separate records, joined by “and”; a condition that tells them apart may be missing. Identical values can stand only once.

How the values were obtained:
[1] = tested on: Drosophila melanogaster transheterozygous larvae; experiment: Genotoxicity (single treatment), Drosophila wing spot test (SMART); format: in vivo; set-up: key to Mann-Whitney Test: n.s.: non-significant; details: single treatment; for Mann-Whitney Test: vs negative control
Procedure: (§1) The principles and basic procedures for the Drosophila wing spot test have been described by Graf et al., and in previous works of our group. Two strains of flies carrying wing genetic markers on the left arm of chromosome 3: multiple wing […] used. The transheterozygous larvae were obtained by crossing […] (Third Multiple 3), Bd^S(Beaded […]) virgin females. Hybrid eggs derived from crossing optimally fertile flies were collected over an 8 h period. […] Concurrent negative controls with the solvent alone (water) and positive controls with hydrogen peroxide (120 mM) were also run. Anti-genotoxicity tests were carried out by mixing the mutagen (hydrogen peroxide, 120 mM) with the compounds solution. After emergence, adult flies were collected from the treatment vials and stored in 70% ethanol. The wings of the flies were removed under a stereomicroscope using a pair of entomological tweezers, similar number of males and females-wings were mounted in Faure's solution on microscope slides and inspected, under 400× magnification, for the presence of clones of cells. The mutant clones were classified into three types: […] The appearance of twin spots indicated the recombinogenic activity of the chemotherapeutic agent (Figure 1). The frequencies of spots per fly of treated series were compared with its corresponding negative control series (water) to analyze Somatic Mutation and Recombination Test (SMART) data. For maximum power, statistical analyses were done exclusively for the total number of spots recovered. The non-parametric U test of Mann, Whitney and Wilcoxon was used to avoid weak positive and inconclusive results on SMART and to achieve a well-defined statistical diagnosis whether a given treatment should be regarded as genotoxic or not. The inhibition percentages (IP) were calculated using the total spots per wing with the following formula [16, 36]: IP = ((Genotoxine alone - Genotoxine plus active compound)/Genotoxine alone) × 100

Drosophila melanogaster = tested on: Drosophila melanogaster; set-up: method as in PMID 19937581; details: SMART, 1, 2 and 4 mg/mL; cited from earlier work
HL60 cells [2] = experiment: Nucleosomal DNA fragmentation assay; format: cell-based, human; details: HL60, 5 h, same concentrations as in the cytotoxicity assay, agarose gel
Procedure: The HL60 tumoral cell line was used with the aim of analyse the apoptotic induction. […] A non-treated cells control was included for each experiment. For DNA fragmentation, treated cells were collected, were centrifuged at 4000 rpm for 5 min and washed with PBS. […] The agarose gels were run at 50 V for 90 min in TBE (Tris/Borate/EDTA) buffer and then observed and photographed under UV light. For Annexin V-PI test, Annexin V Apoptosis Detection Kit ([…] Biotech S.L., Cordoba, Spain) was used. Briefly, cells were resuspended in 100 μL of Binding buffer solution 1× and subsequently, 5 μL AnnexinV-FITC (Fluorescein isothiocyanate) and 10 μL propidium iodide were added, and samples were incubated for 10 min at room temperature in darkness, and flow cytometry (Beckman Coulter Inc., Brea, CA, USA) was then used to analyze the rate of apoptosis.

HL60 cells [3] = details: cited from earlier work
[4] = tested on: Drosophila melanogaster transheterozygous larvae; experiment: Anti-genotoxicity (combined treatment with hydrogen peroxide 120 mM), Drosophila wing spot test (SMART); format: in vivo; set-up: key to Mann-Whitney Test: n.s.: non-significant; details: for Large Spots (>2 Cells) m = 5 / Small Spots (1–2 Cells) m = 2 / Total Spots m = 2 / Twin Spots m = 5 / Mann-Whitney Test: combined treatment with H2O2 120 mM; for Mann-Whitney Test: vs negative control
Procedure: as §1

HL60 cells [5] = experiment: Annexin V-PI apoptosis assay (flow cytometry); format: cell-based, human; details: HL60, 5 h, highest concentrations
Procedure: The HL60 tumoral cell line was used with the aim of analyse the apoptotic induction. HL60 cells (1.5 × 10^6 cells) were treated with the same concentrations of the different compounds for 5 h. A non-treated cells control was included for each experiment. For DNA fragmentation, treated cells were collected, were centrifuged at 4000 rpm for 5 min and washed with PBS. The DNA was extracted using a commercial kit (MBL 243, Dominion mbl, Córdoba, Spain) and the resulting total DNA was treated with RNAse in order to eliminate false positive for 30 min at 37 °C. Samples of 1.5 μg of DNA were mixed with loading buffer and loaded onto a pre-solidified 2% agarose gel containing ethidium bromide. The agarose gels were run at 50 V for 90 min in TBE (Tris/Borate/EDTA) buffer and then observed and photographed under UV light. For Annexin V-PI test, Annexin V Apoptosis Detection Kit (Canvax Biotech S.L., Cordoba, Spain) was used. Briefly, cells were resuspended in 100 μL of Binding buffer solution 1× and subsequently, 5 μL AnnexinV-FITC (Fluorescein isothiocyanate) and 10 μL propidium iodide were added, and samples were incubated for 10 min at room temperature in darkness, and flow cytometry (Beckman Coulter Inc., Brea, CA, USA) was then used to analyze the rate of apoptosis.

[6] = tested on: normal ocular cells (uveal melanocytes, retinal pigment epithelial cells, and scleral fibroblasts); set-up: method as in PMID 24223611; details: highest level tested 300 μM; cited from earlier work
C918 cell line = tested on: C918 cell line; set-up: method as in PMID 24223611; details: C918 human uveal melanoma cell line; read-out: IC50 (cell viability); cited from earlier work
HL60 cells [7] = experiment: Cytotoxicity assay, trypan blue exclusion; format: cell-based, human; details: HL60, 72 h, trypan blue exclusion, at the tested concentrations
Procedure: Therefore, all the cells that exclude the dye are viable. Non-viable cells stained purple-violet, whereas viable ones remained unstained. Trypan blue was added to cell cultures at a 1:1 ratio, and 20 μL of cell suspension was loaded into a Neubauer chamber. The cells were counted under an inverted microscope at 100× magnification. […] Curves are expressed as survival percentage with respect to controls growing at 72 h. All data represent the average of at least three independent experiments.

SP6.5 cell line = tested on: SP6.5 cell line; set-up: method as in PMID 24223611; details: SP6.5 human uveal melanoma cell line; read-out: IC50 (cell viability); cited from earlier work

Question: For `CC1=C(/C=C/C(C)=C/C=C/C(C)=C/C=C/C=C(C)/C=C/C=C(C)/C=C/C2=C(C)CCCC2(C)C)C(C)(C)CCC1` [β-carotene], which “Large Spots (>2 Cells) m = 5” value ([1]; 0.0003 μM) is on record?
Answer: 0.00 (0) clones per wing

Question: What about the “Small Spots (1–2 Cells) m = 2” value ([1]; 0.0003 μM) of the same molecule?
Answer: 0.08 (3) clones per wing

Question: And the “Total Spots m = 2” value ([1]; 0.0003 μM)?
Answer: 0.08 (3) clones per wing

Question: What about the “Twin Spots m = 5” value ([1]; 0.0003 μM) of the same molecule?
Answer: 0.00 (0) clones per wing

Question: What about the “Mann-Whitney Test” value ([1]; 0.0003 μM) of the same molecule?
Answer: n.s.

Question: And the “Large Spots (>2 Cells) m = 5” value ([1]; 0.0689 μM)?
Answer: 0.03 (1) clones per wing

Question: What about the “Small Spots (1–2 Cells) m = 2” value ([1]; 0.0689 μM) of the same molecule?
Answer: 0.03 (1) clones per wing

Question: What about the “Total Spots m = 2” value ([1]; 0.0689 μM) of the same molecule?
Answer: 0.05 (2) clones per wing

Question: And the “Twin Spots m = 5” value ([1]; 0.0689 μM)?
Answer: 0.00 (0) clones per wing

Question: What about the “Mann-Whitney Test” value ([1]; 0.0689 μM) of the same molecule?
Answer: n.s.

Question: And the “detoxification of the mutation induced by doxorubicin” value (Drosophila melanogaster)?
Answer: up to 95%

Question: And the “internucleosomal DNA fragmentation ladder pattern” value (HL60 cells [2])?
Answer: did not show any internucleosomal fragmentation ladder pattern

Question: What about the ID50 (HL60 cells [3]) of the same molecule?
Answer: 27 µM

Question: What about the inhibition at 0.0003 µM ([4]; Drosophila melanogaster, ip, 0.0003 μM, against H2O2 120 mM, read-out: inhibition percentage (IP) of genotoxicity) of the same molecule?
Answer: 100%

Question: And the “Large Spots (>2 Cells) m = 5” value ([4]; 0.0003 μM)?
Answer: 0.00 (0) clones per wing

Question: What about the “Small Spots (1–2 Cells) m = 2” value ([4]; 0.0003 μM) of the same molecule?
Answer: 0.00 (0) clones per wing

Question: What about the “Total Spots m = 2” value ([4]; 0.0003 μM) of the same molecule?
Answer: 0.00 (0) clones per wing

Question: What about the “Twin Spots m = 5” value ([4]; 0.0003 μM) of the same molecule?
Answer: 0.00 (0) clones per wing

Question: What about the “Mann-Whitney Test” value ([4]; 0.0003 μM) of the same molecule?
Answer: n.s.

Question: What about the “Large Spots (>2 Cells) m = 5” value ([4]; 0.0689 μM) of the same molecule?
Answer: 0.03 (1) clones per wing

Question: What about the “Small Spots (1–2 Cells) m = 2” value ([4]; 0.0689 μM) of the same molecule?
Answer: 0.08 (3) clones per wing

Question: What about the “Total Spots m = 2” value ([4]; 0.0689 μM) of the same molecule?
Answer: 0.11 (4) clones per wing

Question: What about the “Twin Spots m = 5” value ([4]; 0.0689 μM) of the same molecule?
Answer: 0.00 (0) clones per wing

Question: What about the “Mann-Whitney Test” value ([4]; 0.0689 μM) of the same molecule?
Answer: n.s.

Question: And the “apoptosis by Annexin V/PI versus negative control” value (HL60 cells [5])?
Answer: induced apoptosis

Question: With `CC1=C(/C=C/C(C)=C/C=C/C(C)=C/C=C/C=C(C)/C=C/C=C(C)/C=C/C2=C(C)C[C@@H](O)CC2(C)C)C(C)(C)C[C@H](O)C1` [Zeaxanthin, zeaxanthin] as the molecule, how does the “Large Spots (>2 Cells) m = 5” value ([1]; 0.0001 μM) read?
Answer: 0.00 (0) clones per wing

Question: And the “Small Spots (1–2 Cells) m = 2” value ([1]; 0.0001 μM)?
Answer: 0.05 (2) clones per wing

Question: And the “Total Spots m = 2” value ([1]; 0.0001 μM)?
Answer: 0.05 (2) clones per wing

Question: What about the “Twin Spots m = 5” value ([1]; 0.0001 μM) of the same molecule?
Answer: 0.00 (0) clones per wing

Question: And the “Mann-Whitney Test” value ([1]; 0.0001 μM)?
Answer: n.s.

Question: And the “Large Spots (>2 Cells) m = 5” value ([1]; 0.105 μM)?
Answer: 0.03 (1) clones per wing

Question: What about the “Small Spots (1–2 Cells) m = 2” value ([1]; 0.105 μM) of the same molecule?
Answer: 0.10 (4) clones per wing

Question: What about the “Total Spots m = 2” value ([1]; 0.105 μM) of the same molecule?
Answer: 0.15 clones per wing and 0.15 (6) clones per wing

Question: And the “Twin Spots m = 5” value ([1]; 0.105 μM)?
Answer: 0.03 (1) clones per wing

Question: What about the “Mann-Whitney Test” value ([1]; 0.105 μM) of the same molecule?
Answer: n.s.

Question: And the “internucleosomal DNA fragmentation ladder pattern” value (HL60 cells [2])?
Answer: did not show any internucleosomal fragmentation ladder pattern

Question: And the “effect on viability of normal ocular cells” value [6]?
Answer: did not affect the viability

Question: What about the IC50 (C918 cell line) of the same molecule?
Answer: 28.7 µM

Question: What about the “cytotoxic effect (tumoral viability)” value (HL60 cells [7]) of the same molecule?
Answer: slight cytotoxic activities

Question: And the IC50 (SP6.5 cell line)?
Answer: 40.8 µM

Question: And the “Large Spots (>2 Cells) m = 5” value ([4]; 0.0001 μM)?
Answer: 0.00 (0) clones per wing

Question: And the “Small Spots (1–2 Cells) m = 2” value ([4]; 0.0001 μM)?
Answer: 0.03 (1) clones per wing

Question: What about the “Total Spots m = 2” value ([4]; 0.0001 μM) of the same molecule?
Answer: 0.05 (2) clones per wing

Question: What about the “Twin Spots m = 5” value ([4]; 0.0001 μM) of the same molecule?
Answer: 0.03 (1) clones per wing

Question: What about the “Mann-Whitney Test” value ([4]; 0.0001 μM) of the same molecule?
Answer: n.s.

Question: And the “Large Spots (>2 Cells) m = 5” value ([4]; 0.105 μM)?
Answer: 0.00 (0) clones per wing

Question: What about the “Small Spots (1–2 Cells) m = 2” value ([4]; 0.105 μM) of the same molecule?
Answer: 0.07 (2) clones per wing

Question: What about the “Total Spots m = 2” value ([4]; 0.105 μM) of the same molecule?
Answer: 0.07 (2) clones per wing

Question: And the “Twin Spots m = 5” value ([4]; 0.105 μM)?
Answer: 0.00 (0) clones per wing

Question: And the “Mann-Whitney Test” value ([4]; 0.105 μM)?
Answer: n.s.
